# From article PMC8464809, “Anticancer and Structure Activity Relationship of Non-Symmetrical Choline Kinase Inhibitors” (Pharmaceutics, 2021)
# Legend:
# human ChoKα1 = target: T1, human ChoKα1 (Homo sapiens, UniProt P35790); assay: Inhibition of purified ChoKα1: incorporation of 14C from [methyl-14C]choline into phosphocholine; format: biochemical; conditions: purified ChoKα1, 1 mM choline, 10 mM ATP, 37 °C, 10 min; read-out: IC50 hChoKα1
# T1 construct: made in house
# Description: The effect of compounds 3a–h and 4a–h on ChoKα1 was assayed in purified ChoKα1 as previously described, by determining the rate of incorporation of ^14C from [methyl-^14C]choline into phosphocholine, both in the absence (control) or presence of different inhibitor concentrations. Briefly, 20 ng of purified ChoKα1 were incubated with 1 mM [methyl-^14C]choline (4500 dpm/nmol) in 100 mM Tris-HCl (pH 8.5), 10 mM MgCl2, 10 mM ATP, and incubated at 37 °C for 10 min. The reaction was stopped by immersing the reaction tubes in boiling water for 3 min. Aliquots of the reaction were applied to the origin of silica gel plates in the presence of phosphocholine (0.1 mg) and choline (0.1 mg) as carriers. The chromatography was developed in methanol/0.6% NaCl/28% NH4OH in water (50:50:5, v/v/v) as a solvent, and phosphocholine was visualized under exposure to iodine vapor. The corresponding spot was scraped and transferred to scintillation vials for measurement of radioactivity by a Beckman 6000-TA (Madrid, Spain) liquid-scintillation counter. The 50% inhibitory concentrations (IC50 value) were determined from the % activity of the enzyme at different concentrations of synthetic inhibitor using a sigmoidal dose-response curve (the ED50plus v1.0 software).
# HT-29 cells = assay: Antiproliferative MTT assay, HT-29; format: cell-based; conditions: Homo sapiens, 72 h
# Description: (§1) Human cervix carcinoma (HeLa) and human breast cancer (MCF-7) were grown in the DMEM medium (Gibco, Milan, Italy). B-acute lymphoblastic leukemia (RS4;11), T-acute lymphoblastic leukemia (CCRF-CEM and Jurkat), human promyelocytic cells (HL-60), and human colon adenocarcinoma (HT-29) cells were grown in RPMI medium (Gibco, Milan, Italy). Both media were supplemented with 115 units/mL of penicillin G (Gibco, Milan, Italy), 115 μg/mL of streptomycin (Invitrogen, Milan, Italy), and 10% FBS (Invitrogen, Milan, Italy). Cell lines were tested for mycoplasma contamination every 6 months by the RT-PCR analysis. Stock solutions (10 mM) of the different compounds were obtained by dissolving them in DMSO. Individual wells of 96-well tissue-culture microtiter plates were inoculated with 100 μL of complete medium containing 5 × 10^3 adherent cells or 25 × 10^3 leukemia cells. The plates were incubated at 37 °C in a humidified 5% CO2 incubator for 18 h prior to the experiments. After medium removal, 100 μL of fresh medium containing the test compound at different concentrations was added to each well and incubated at 37 °C for 72 h.
# HeLa cells = assay: Antiproliferative MTT assay, HeLa; format: cell-based; conditions: Homo sapiens, 72 h
# Description: as §1
# MCF-7 cells = assay: Antiproliferative MTT assay, MCF-7; format: cell-based; conditions: Homo sapiens, MCF7, 72 h
# Description: as §1
# CCRF-CEM cells = assay: Antiproliferative MTT assay, CCRF-CEM; format: cell-based; conditions: Homo sapiens, 72 h
# Description: as §1
# HL-60 cells = assay: Antiproliferative MTT assay, HL-60; format: cell-based, human; conditions: for GI50: Homo sapiens, HL-60, 72 h, MTT
# Description: as §1
# RS4;11 cells = assay: Antiproliferative MTT assay, RS4;11; format: cell-based; conditions: Homo sapiens, 72 h
# Description: as §1
# [1] = Cytotoxicity in resting peripheral blood lymphocytes (MTT); format: cell-based; conditions: human, PBL not stimulated with PHA, healthy donors, read-out: GI50 PBLresting
# Description: (§2) Additional experiments were conducted with peripheral blood lymphocytes (PBL) from healthy donors obtained as described previously. For cytotoxicity evaluations in proliferating PBL cultures, non-adherent cells were resuspended at 5 × 10^5 cells/mL in a growth medium containing 2.5 µg/mL PHA (Irvine Scientific). Different concentrations of the test compounds were added, and viability was determined 72 h later by the MTT test. For cytotoxicity evaluations in resting PBL cultures, non-adherent cells were resuspended (5 × 10^5 cells/mL) and treated for 72 h with the test compounds, as described above.
# [2] = Cytotoxicity in PHA-stimulated peripheral blood lymphocytes (MTT); format: cell-based; conditions: human, PBL stimulated with PHA, healthy donors, read-out: GI50 PBLPHA
# Description: as §2
# Jurkat cells = assay: Apoptosis by annexin-V/PI flow cytometry; format: cell-based, human; conditions: after 24 h of treatment, concentration dependent
# Description: Jurkat cells were treated with the test compounds and after different times stained with both PI, to stain DNA, and annexin V-fluorescein isothiocyanate, to stain membrane PS exposed on the cell surface, following the instructions of the manufacturer (Roche Diagnostics) of the Annexin-V-Fluos reagent.
# [3] = tested on: HT-29, HeLa, MCF-7, CCRF-CEM, HL-60, and RS4;11cells; assay: Antiproliferative MTT assay, panel of six human tumor cell lines; format: cell-based; conditions: HL-60, RS4;11, 72 h
# Description: as §1
# [4] = tested on: choline uptake in HepG2 cells; assay: Choline uptake assay; format: cell-based; conditions: Homo sapiens, 10 min preincubation with the compound
# Description: Choline uptake was determined as previously reported. Briefly, HepG2 cells (200,000 cells/well) were incubated for 10 min at 37 °C either in a medium containing different concentrations of ChoKα1 inhibitors or only with the medium as controls. The medium was then removed and the cells were immediately exposed to a medium containing [methyl-^14C]choline (16 μM, 31 Ci/mol) for 10 min at 37 °C. The incorporation of choline was stopped by medium aspiration followed by two washes with ice-cold PBS containing 580 μM choline. The cells were solubilized in NaOH 0.1 N and an aliquot was used to determine the total amount of radiolabel taken up by the cells.
# T1 sequence (P35790 whole entry): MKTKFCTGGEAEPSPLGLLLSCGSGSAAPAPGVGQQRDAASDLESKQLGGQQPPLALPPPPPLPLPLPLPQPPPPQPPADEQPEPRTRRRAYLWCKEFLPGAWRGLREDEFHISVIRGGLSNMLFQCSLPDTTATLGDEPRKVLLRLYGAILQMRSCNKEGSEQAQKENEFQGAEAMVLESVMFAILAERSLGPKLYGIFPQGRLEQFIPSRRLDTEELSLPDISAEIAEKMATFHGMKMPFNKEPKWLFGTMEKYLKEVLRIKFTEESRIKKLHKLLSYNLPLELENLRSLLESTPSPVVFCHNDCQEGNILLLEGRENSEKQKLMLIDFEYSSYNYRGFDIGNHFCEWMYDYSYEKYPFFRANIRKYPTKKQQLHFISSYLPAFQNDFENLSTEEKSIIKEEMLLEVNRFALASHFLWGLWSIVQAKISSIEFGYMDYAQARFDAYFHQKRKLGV
IC50 (human ChoKα1) [µM],GI50 (HT-29 cells) [µM],GI50 (HeLa cells) [µM],GI50 (MCF-7 cells) [µM],GI50 (CCRF-CEM cells) [µM],GI50 (HL-60 cells) [µM],GI50 (RS4;11 cells) [µM],"GI50 values, range over six cell lines [3] [nM]",Structure (SMILES),"fold more potent than MN-48b (HL-60 cells; against HL-60 leukemic cells, MN-48b ref 23) [fold]",GI50 at 72 h [1] [µM],GI50 at 72 h [2] [µM],apoptotic cells (annexin-V/PI) (Jurkat cells),IC50 [4] [µM]
> 50,36 ± 7.4,4.8 ± 0.58,22.8 ± 4.3,3.4 ± 0.7,4.8 ± 0.4,16.8 ± 4.8,–,Nc1cccc(OCc2ccc(C[n+]3ccc(N4CCCC4)cc3)cc2)c1 [Compound 3a],–,–,–,–,–
17.5 ± 1.24,–,–,–,–,–,–,–,Nc1cccc(OCc2ccc(-c3ccc(C[n+]4ccc(N5CCCC5)cc4)cc3)cc2)c1 [Compound 3b],–,–,–,–,–
8.56 ± 0.94,0.63 ± 0.14,0.068 ± 0.028,0.3 ± 0.1,0.03 ± 0.003,0.011 ± 0.005,0.15 ± 0.012,630 to 11,Nc1cccc(OCc2ccc(CCc3ccc(C[n+]4ccc(N5CCCC5)cc4)cc3)cc2)c1 [Compound 3c],30,> 10,> 10,significant increase of apoptotic cells,–
6.79 ± 0.47,0.58 ± 0.17,0.16 ± 0.048,0.5 ± 0.2,0.015 ± 0.005,0.12 ± 0.091,0.29 ± 0.053,–,Nc1cccc(OCc2ccc(CCCCc3ccc(C[n+]4ccc(N5CCCC5)cc4)cc3)cc2)c1 [Compound 3d],–,–,–,–,15.8 ± 0.24
6.33 ± 0.8,26.1 ± 6.7,8.2 ± 2.4,23.6 ± 5.1,1.2 ± 0.5,38.7 ± 6.2,53.6 ± 13.4,–,CN(C)c1cc[n+](Cc2ccc(COc3cccc(N)c3)cc2)cc1 [Compound 3e],–,–,–,–,–
6.39 ± 0.46,4.4 ± 0.7,4.2 ± 0.5,7.6 ± 1.6,0.54 ± 0.21,2.4 ± 0.7,2 ± 0.5,–,CN(C)c1cc[n+](Cc2ccc(-c3ccc(COc4cccc(N)c4)cc3)cc2)cc1 [Compound 3f],–,–,–,–,–
4.29 ± 0.12,2.2 ± 0.9,1.2 ± 0.2,4.3 ± 0.9,0.4 ± 0.26,1.6 ± 0.9,2.6 ± 0.2,–,CN(C)c1cc[n+](Cc2ccc(CCc3ccc(COc4cccc(N)c4)cc3)cc2)cc1 [Compound 3g],–,–,–,–,–
7.01 ± 0.13,–,–,–,–,–,–,–,CN(C)c1cc[n+](Cc2ccc(CCCCc3ccc(COc4cccc(N)c4)cc3)cc2)cc1 [Compound 3h],–,–,–,–,–
3.34 ± 0.34,49.7 ± 11.4,12.8 ± 2.6,17.8 ± 5.3,7.3 ± 2.5,4.1 ± 1.2,24.5 ± 2.9,–,Oc1cccc(NCc2ccc(C[n+]3ccc(N4CCCC4)cc3)cc2)c1 [Compound 4a],–,–,–,–,–
3.85 ± 0.1,6.6 ± 2.3,2.1 ± 0.4,4.4 ± 0.5,0.5 ± 0.1,1.1 ± 0.3,2.8 ± 0.6,–,Oc1cccc(NCc2ccc(-c3ccc(C[n+]4ccc(N5CCCC5)cc4)cc3)cc2)c1 [Compound 4b],–,–,–,–,–
3.83 ± 0.91,5.3 ± 2.1,0.86 ± 0.26,1.7 ± 0.4,0.14 ± 0.03,0.065 ± 0.023,0.46 ± 0.061,–,Oc1cccc(NCc2ccc(CCc3ccc(C[n+]4ccc(N5CCCC5)cc4)cc3)cc2)c1 [Compound 4c],–,–,–,–,–
3.36 ± 0.17,5.8 ± 1.9,0.39 ± 0.12,2.8 ± 0.5,0.086 ± 0.03,0.33 ± 0.074,0.71 ± 0.16,–,Oc1cccc(NCc2ccc(CCCCc3ccc(C[n+]4ccc(N5CCCC5)cc4)cc3)cc2)c1 [Compound 4d],–,–,–,–,–
2.82 ± 0.16,23.8 ± 8.2,12.4 ± 1.8,6.7 ± 1.5,8.4 ± 1.6,4 ± 0.9,31 ± 2.6,–,CN(C)c1cc[n+](Cc2ccc(CNc3cccc(O)c3)cc2)cc1 [Compound 4e],–,–,–,–,–
–,13.2 ± 5,3.6 ± 0.4,5 ± 1,1.1 ± 0.4,1.3 ± 0.4,3.7 ± 0.4,–,CN(C)c1cc[n+](Cc2ccc(-c3ccc(CNc4cccc(O)c4)cc3)cc2)cc1 [Compound 4f],–,7.6 ± 1.1,3.6 ± 0.8,significant increase of apoptotic cells,3.5 ± 0.07
3.66 ± 0.11,5.2 ± 1.7,1.7 ± 0.2,2.4 ± 0.2,0.7 ± 0.1,0.25 ± 0.066,1.1 ± 0.3,–,CN(C)c1cc[n+](Cc2ccc(CCc3ccc(CNc4cccc(O)c4)cc3)cc2)cc1 [Compound 4g],–,–,–,–,–
–,3.6 ± 1.4,0.7 ± 0.1,2.2 ± 1,0.16 ± 0.034,0.37 ± 0.079,0.5 ± 0.08,–,CN(C)c1cc[n+](Cc2ccc(CCCCc3ccc(CNc4cccc(O)c4)cc3)cc2)cc1 [Compound 4h],–,–,–,–,–
